Test results from US9505739B2, “Spiropyrrolidine beta-secretase inhibitors for the treatment of alzheimer's disease” (Merck Sharp & Dohme Corp., priority 2009, dated 2016).

Target: BACE 1 (Homo sapiens (Human), UniProt P56817)
Assay: ECL assay: homogeneous end point electrochemiluminescence assay of beta-secretase inhibition with biotinylated BACE substrate
Assay type: biochemical
Conditions: soluble human BACE 1, pH 6.5, rt
Protocol: Enzyme inhibition is determined as follows.
ECL Assay: A homogeneous end point electrochemiluminescence (ECL) assay is performed using a biotinylated BACE substrate. The Km of the substrate is approximated at 50 μM. A typical reaction contains approximately 0.6 nM enzyme, 0.25 μM of the substrate, and buffer (50 mM Pipes, pH 6.5, 0.1 mg/ml BSA, 0.2% CHAPS, 15 mM EDTA and 1 mM deferoxamine) in a total reaction volume of 100 μl. The reaction proceeds for 1-2 hrs and is then stopped by the addition of 150 μL of a quench cocktail solution (25 μl M Tris-HCl, pH 8.0, 50 μl INC buffer (2% BSA, 0.2% Tween-20 and 0.05% sodium azide diluted in Phosphate buffered saline (PBS) plus 75 μL PBS), containing Streptavidin coated magnetic beads and ruthenylated antibody which specifically recognizes the C-terminal residue of the product. The samples are subjected to M-384 (Igen Inc., Gaithersburg, Md.) analysis. Under these conditions, less than 10% of substrate is processed by BACE 1. The enzyme used in these studies is soluble (transmembrane domain and cytoplasmic extension excluded) human protein produced in a baculovirus expression system. To measure the inhibitory potency for compounds, 10 concentrations of inhibitors are prepared starting from 200 μM with three fold series dilution. Solutions of the inhibitor in DMSO are included in the reaction mixture (final DMSO concentration is 10%). […]

BACE 1, sequence (P56817 46-457): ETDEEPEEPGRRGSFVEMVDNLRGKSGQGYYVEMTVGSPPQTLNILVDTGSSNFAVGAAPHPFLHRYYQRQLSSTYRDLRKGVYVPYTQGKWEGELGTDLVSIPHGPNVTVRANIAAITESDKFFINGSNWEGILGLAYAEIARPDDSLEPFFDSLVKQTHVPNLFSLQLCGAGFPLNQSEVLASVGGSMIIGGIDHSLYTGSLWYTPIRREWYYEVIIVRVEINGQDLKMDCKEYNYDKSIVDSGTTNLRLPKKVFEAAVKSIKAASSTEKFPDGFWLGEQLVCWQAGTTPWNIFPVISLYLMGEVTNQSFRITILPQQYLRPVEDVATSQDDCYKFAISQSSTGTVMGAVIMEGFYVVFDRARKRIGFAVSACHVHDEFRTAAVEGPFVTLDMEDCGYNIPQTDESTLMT

IC50: 0.45 µM
SMILES: Cc1cccc(C2CC(c3ccccc3)CCN2C(=O)[C@@H]2CNC[C@]23CCCc2nc(Cl)ccc23)c1 (stereo partly drawn) [Example 100, [(3R,4S)-2′-chloro-7′,8′-dihydro-6′H-spiro [pyrrolidine-3,5′-quinolin]-4-yl][2-(3-methylphenyl)-4-phenylpiperidin-1-yl] methanone]
